Molecular target: protein kinase C
Assay: inhibition of protein kinase C in vitro (protein kinase-induced incorporation of 32P from [γ-32P]ATP into histone)
Format: biochemical
Conditions: histone substrate, read-out: IC50: concentration which reduces by 50% the protein kinase-induced incorporation of ^32 P from [γ-^32 P]ATP into histone
From the text: The IC50 figures in the following Table, represent that concentration of test compound which reduces by 50% the protein kinase-induced incorporation of ^32 P from [γ-^32 P]ATP into histone.

IC50 | SMILES
10 nM | Cn1cc(C2=C(c3cn(CCCSC(=N)N)c4ccccc34)C(=O)NC2=O)c2ccccc21 [3-[1-[3-(amidinothio)propyl]-3-indolyl]-4-(1-methyl-3-indolyl)-1H-pyrrole-2,5-dione]
500 nM | Cn1cc(C2=C(c3cn(CCC(N)=O)c4ccccc34)C(=O)NC2=O)c2ccccc21 [3-[1-(2-carbamoylethyl)-3-indolyl]-4-(1-methyl-3-indolyl)-1H-pyrrole-2,5-dione]

SMILES | IC50
Cn1cc(C2=C(c3cn(CCCN=C=S)c4ccccc34)C(=O)NC2=O)c2ccccc21 [3-[1-(3-isothiocyanatopropyl)-3-indolyl]-4-(1-methyl-3-indolyl)-1H-pyrrole-2,5-dione] | 8 nM

Reference: USRE36736E, “Substituted pyrroles” (Hoffman-La Roche Inc., priority 1998, dated 2000)
